This is an account of results in patent US20240201205A1, “METHOD FOR DETECTING NEUROLOGICAL DISEASES USING SUPRAMOLECULE POLYMER THERAPEUTICS” (The Regents of the University of California, priority 2022, published 2024).

In assay [1] the target is T1, YFP-tagged full length 0N4R-Tau carrying a P301S mutation (T24 cells) (Homo sapiens, UniProt P10636, P618S).
T1 construct: C-terminally YFP-tagged full length 0N4R-Tau carrying a P301S mutation (T24 cells); expressed in transfected cells
Put plainly: Tau-AD high throughput screening (counter screen). In kind it is cell-based. The following applies: final test concentration of 10 μM; T24 cells transfected with 416-AD11A lysate; 72 h; control is DMSO. As for the experimental part: A fragment of the Middle Tempral Gyrus (MTG) from Alzheimer's Disease (AD) patient 2217 was resuspended in 9 volumes of PBS (ml/g of brain) and homogenized 3×12 seconds using a probe homogenizer (Thomas Scientific) with disposable Omni Tip plastic homogenizing probes (Thomas Scientific Cat No 3409Y77) to generate a 10% brain homogenate (10% AD11-BH). The 10% AD11-BH was clarified of insoluble debris by centrifugation at 800×g for 5 minutes. The resulting supernatant was collected and the protein concentration of this clarified BH (AD11-CBH) was determined by bicinchoninic acid assay (BCA) (Thermo Fisher Cat No. 23227). HEK293 cells stably expressing a C-terminally Clover-tagged truncated 4R-Tau^243-382 transgene containing the P301L and V337M mutations and a C-terminally Ruby-tagged truncated 3R-Tau^243-382 transgene containing the L266V and V337M mutations (128/139 cells) were transfected with the AD11-CBH using lipofectamine 2000 (LF2K) (Thermo Fisher Cat No. 11668500). Briefly, 0.32 μl of LF2K were diluted in 5 μl Opti-MEM (Thermo Scientific Cat No 31985070) per well of a 384-well plate and incubated for 5 min at room temperature (RT). This mixture was added to 0.32 μg of AD11-CBH diluted in 5 μl of PBS per well of a 384-well plate and vortex briefly. The transfection mixture was incubated at room temperature for 90 min. The transfection complexes were subsequently added to a single well of a 384-well plate containing 3500 128/139 cells. After 3 days the cells were harvested, counted and plated at a density of 1 cell/well in a 96-well plate. A clonal cell line containing Clover and Ruby positive Tau aggregates was selected and termed 416-AD11A cells. Following the expansion of these 416-AD11A cells, a cell lysate was prepared by freeze/thaw. The cells from a confluent T175 flask were harvested in 1 ml of PBS containing 1× protease inhibitor cocktail by scraping. The cell suspension was subjected to 4 cycles of freezing in liquid nitrogen for 5 minutes followed by thawing at 37° C. for 5 minutes. The resulting cell lysate was centrifuged at 2000 RPM for 10 minutes to remove the cell debris and the protein concentration of the resulting 416-AD11A lysate was determined by BCA assay and aliquots frozen for future use.
HEK293 cells stably expressing C-terminally YFP-tagged full length 0N4R-Tau carrying a P301S mutation (T24 cells) are plated at a density of 4000 cells per well of a 384-well black walled, clear bottom plate (Greiner Cat No 5678-1091Q) in 60 μl of complete DMEM (DMEM (Corning Cat No 10-013-CV), 10% FBS (VWR Cat No 97068-085, 0.5% Penicillin/streptomycin (Gibco Cat No 15140-122)) containing 0.1 μg/ml Hoechst Dye (Thermo Scientific Cat No H3570). Transfection complexes are prepared by diluting 0.15 μg of 416-AD11A lysate or HEK lysate in 5 μl of PBS per well to be transfected and 0.15 μl of Lipofectamine 2000 (LF2K) (ThermoFisher Cat No 11668500) in 5 μl of Opti-MEM per well to be transfected in separate tubes. The pre-diluted 416-AD11A or HEK lysates and LF2K are subsequently mixed and allowed to incubate for 90 minutes at RT. A 10 μl aliquot of the 416-AD11A or HEK transfection complexes is added to the appropriate wells of the 384-well plate containing the T24 cells using the Bravo liquid handling platform (Agilent). Wells A23-P24 of the 384-well plate are transfected with HEK lysate to act as a reference point for spontaneous aggregation of 0N4R^P301S and for transfection related toxicity. The dilution of test compounds is performed using the Bravo liquid handling platform (Agilent). The control is DMSO in the absence of any test compound. Briefly, 1 μl of each test compound (5 mM stock) in the 384-well test plate was transferred to a 384-well plate (Greiner Cat No 781280) containing 61.5 μl of complete DMEM to generate a working stock of compounds at 80 μM. […]

The target in assay [2] is T2, α-synuclein fibrils isolated from an MSA patient sample (Homo sapiens, UniProt P37840).
T2 construct: fresh-frozen tissue from the cerebellum of patients clinically and neuropathologically diagnosed with MSA; from tissue; host or cells: cerebellum of MSA patients (sarkosyl-insoluble filament preparation)
Put plainly: Cryo-EM co-structures of compounds with α-synuclein fibrils from MSA patient. It counts as binding. The note with it: fibrils from MSA patient sample; 20 μM ligand. As for the experimental part:
MSA filament purification. Filament purification was based on Schweigenhauser et al., 2020^2. Briefly, 1-2 g of fresh-frozen tissue from the cerebellum of patients clinically and neuropathologically diagnosed with MSA was homogenized at 20 mL/g of tissue in 10 mM Tris-HCl (pH 7.4), 800 mM NaCl, 1 mM EGTA, and 10% sucrose. A final concentration of 1% N-laurosarcosinate (w/v) was added to the homogenates, and these mixtures were incubated at 37° C. for 30 minutes. Homogenates were then centrifuged at 10,000 g for 10 minutes, and the supernatant was kept and then centrifuged at 100,000 g for 20 minutes. The pellets were resuspended at 500 μL/g of frozen tissue in 10 mM Tris-HCl (pH 7.4), 800 mM NaCl, 1 mM EGTA, and 10% sucrose. This was followed by another centrifugation at 3,000 g for 5 minutes. The supernatant was kept and diluted threefold with 50 mM Tris-HCl (pH 7.4), 150 mM NaCl, 10% sucrose, and 2% sarkosyl, followed by another centrifugation at 150,000 g for 1 hour. The final pellet resuspended in 30 mM Tris-HCl (pH 7.4) at a concentration of 100 μL/g frozen tissue.
Cryo-EM sample preparation and data collection. Purified frontal cortex and cerebellum tissue was incubated with 20 μM ligand for 45 minutes prior to freezing. For the tau PHF, 3 μL of purified filaments mixed with GTP-1 was added to a glow-discharged 200 mesh 1.2/1.3R Au Quantifoil grid for 10 seconds before blotting for 2 seconds, and then a second 3 μL aliquot was added for 3 seconds and blotted for 1 second before being plunge frozen in liquid ethane using a FEI Vitrobot Mark IV (Thermo Fisher Scientific). For the synuclein ligands, 3 μL of purified filaments mixed with compound was added to a 200 mesh 1.2/1.3R Au Quantifoil grid coated with a 2 nm thick layer of carbon, which had not been glow discharged. After 30 seconds, grids were blotted for 7.5 seconds at room temperature and 100% humidity. Grids were plunge frozen in liquid ethane using a FEI Vitrobot Mark IV. […] A defocus range of 0.8 to 1.8 μm was used with a total exposure time of 2.024 seconds fractionated into 0.025 seconds subframes. The total dose for each movie was 46 electrons/Å^2. Movies were motion-corrected using MotionCor2^3 in Scipion^4 and were Fourier cropped by a factor of 2 to a final pixel size of 0.834 Å per pixel.
Image processing. All image processing was done in RELION 4^5, and the same workflow was used for each dataset. Dose-weighted summed micrographs were imported into RELION 4. The contrast transfer function was estimated using CTFFIND-4.1^6. Filaments were manually picked and then segments were extracted with a box size of 900 pixels downscaled to 300 pixels. Contaminants and segments contributing to straight filaments were separated out using reference-free 2D class averaging. The remaining segments were re-extracted with a box size of 288 pixels without downscaling. An initial model was generated from a cylinder in RELION. One or more rounds of 3D classification with image alignment were performed, with helical rise and […] parameters fixed to eliminate obvious junk particles. One or more rounds of 3D auto-refinement was run using the best map from 3D classification low-pass filtered to 10 Å, allowing rise and twist parameters to vary. Maps were sharpened using the standard post-processing procedures in RELION.
Model building, refinement, and analysis. Prior to ligand placement, a single strand of a previously solved MSA or tau PHF filament structure^2 (PDB: 6XYQ) was refined against the density using Phenix^7. Refinement of the ligand binding pocket was done in COOT^8. Ligands were placed by hand in the density using Chimera^9. This model was then translated to give a stack spanning 5 rungs.

Molecules are shown by their SMILES.

T1 sequence (P10636 1-383 isoform P10636-6 P243S): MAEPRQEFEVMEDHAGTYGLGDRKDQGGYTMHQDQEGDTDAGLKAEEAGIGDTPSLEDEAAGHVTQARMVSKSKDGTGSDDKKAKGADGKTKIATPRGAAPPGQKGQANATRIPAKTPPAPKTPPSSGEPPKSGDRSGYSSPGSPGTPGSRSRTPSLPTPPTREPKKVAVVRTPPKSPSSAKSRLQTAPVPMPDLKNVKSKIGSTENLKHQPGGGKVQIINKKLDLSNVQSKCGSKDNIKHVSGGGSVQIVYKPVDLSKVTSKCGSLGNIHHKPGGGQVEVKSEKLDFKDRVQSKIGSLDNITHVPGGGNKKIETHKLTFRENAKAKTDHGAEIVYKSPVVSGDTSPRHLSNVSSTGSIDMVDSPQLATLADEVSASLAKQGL

Consider `COC(=O)Nc1ncc2c(-c3ccccc3)nn(-c3ccccc3)c2n1` [Compound 274], for which the “AD Tau Aggregates (% control)” value in assay [1] amounted to 94 % control.
Still for that read-out and setting: as for `CCC(=O)Nc1ncc2c(-c3ccccc3)nn(Cc3ccc(OC)cc3)c2n1` [Compound 269], the figure is 100 % control.
With `O=C(Cn1cc(-c2ccoc2)c(=O)c2ccc(N3CCCC3)cc21)Nc1ccccc1C(F)(F)F` [Compound 149, 2-[3-(furan-3-yl)-4-oxo-7-(pyrrolidin-1-yl)-1,4-dihydroquinolin-1-yl]-N-[2-(trifluoromethyl)phenyl]acetamide], in assay [2], the “binding to α-synuclein fibrils (cryo-EM co-structure)” value (“binding to α-synuclein fibrils” below) was “bound to fibrils isolated from an MSA patient sample”.
On the same count and under the same terms, with `CNc1nc(=O)n(-c2nc(-c3cc(C)cc(C)n3)oc2-c2ccc(F)c(F)c2)cc1F` [compound 294] the entry was “bound to fibrils isolated from an MSA patient sample”.
As for `CNC(=O)c1ncc2c(-c3ccc(F)cc3)nn(Cc3cccc(F)c3)c2n1` [Compound 260], the “AD Tau Aggregates (% control)” value in assay [1] was determined as 95 % control.
Still for that read-out and setting: as for `Cc1cc(-c2nc(-n3cc4ccn(C5CC5)c4nc3=O)c(-c3ccc(F)c(F)c3)o2)ncc1F` [Compound 234], the figure is 85 % control.
Still for that read-out and setting: as for `Cc1ccn(-c2nc(-n3cc4ccn(C(F)(F)F)c4nc3=O)c(-c3ccc(F)cc3)o2)n1` [Compound 241], the figure is 98 % control; as for `CNC(=O)c1ncc2c(-c3cc4c(cnn4C)cc3F)nn(Cc3ccccc3)c2n1` [Compound 253], 96 % control.
In the case of `CNc1nc(=O)n(-c2nc(-c3cccc(Cl)c3)oc2-c2ccc(Cl)c(F)c2)cc1F` [Compound 125, 1-(5-(4-chloro-3-fluorophenyl)-2-(3-chlorophenyl)oxazol-4-yl)-5-fluoro-4-(methylamino)pyrimidin-2(1H)-one], in assay [2], the “binding to α-synuclein fibrils” value is “bound to fibrils isolated from an MSA patient sample”.
With `CNC(=O)c1ncc2c(-c3cccc4c3OC(F)(F)O4)nn(Cc3ccccc3)c2n1` [Compound 254], the “AD Tau Aggregates (% control)” value in assay [1] was found to be 100 % control.
Take `Cc1nccc2cc(-c3nc(-n4ccc5cccnc5c4=O)c(-c4ccc(C(F)(F)F)cc4)o3)ccc12` [compound 427]: in assay [2], the “binding to α-synuclein fibrils” value is on record as “bound to fibrils isolated from an MSA patient sample”.
`CC(=O)Nc1ncc2c(-c3ccccc3C)nn(Cc3ccccc3)c2n1` [Compound 266]: the “AD Tau Aggregates (% control)” value in assay [1] is 98 % control.
On the same count and under the same terms, as for `CNC(=O)c1ncc2c(-c3ccc(F)cc3)nn(Cc3ccnc(F)c3)c2n1` [Compound 259], the figure is 99 % control; as for `CC(=O)Nc1ncc2c(-c3ccccc3)nn(Cc3ccncc3)c2n1` [Compound 279], 92 % control; as for `O=c1nc2c(ccn2C(F)(F)F)cn1-c1nc(N2Cc3ccccc3C2)oc1-c1ccc(F)cc1` [Compound 242], 99 % control.
Same read-out and setting: with `CNC(=O)c1ncc2c(-c3ccc(F)cc3)nn(CC3CCCCC3)c2n1` [Compound 258] the figure was 110 % control; with `CC(=O)Nc1ncc2c(-c3ccccc3)nn(CC3CCCCC3)c2n1` [Compound 280], 90 % control.
Regarding `CNC(=O)c1ncc2c(-c3ccccc3Cl)nn(-c3ccc(F)cc3)c2n1` [Compound 244], the “AD Tau Aggregates (% control)” value in assay [1] is 100 % control.
On the same count and under the same terms, with `CNC(=O)c1ncc2c(-c3ccccc3)nn(-c3ccc(F)cc3)c2n1` [Compound 246] the figure was 120 % control; with `CNC(=O)c1ncc2c(-c3ccc(F)cc3)nn(Cc3ccc(F)cc3)c2n1` [Compound 261], 87 % control; with `CCc1ccccc1-c1nn(-c2ccc(F)cc2)c2nc(C(=O)NC)ncc12` [Compound 245], 120 % control.
In the case of `CC(=O)Nc1ncc2c(-c3ccccc3)nn(Cc3cncc(F)c3)c2n1` [Compound 267], in assay [1], the “AD Tau Aggregates (% control)” value came to 91 % control.
Take `CC(=O)Nc1ncc2c(-c3ccccc3)nn(C(C)c3ccccc3)c2n1` (stereo not shown) [Compound 265]: the “AD Tau Aggregates (% control)” value in assay [1] is 110 % control.
Same read-out and setting: with `Cc1ccnn1-c1nc(-n2cc3ccn(C(F)(F)F)c3nc2=O)c(-c2ccc(F)cc2)o1` [Compound 240] the figure was 95 % control.
Same read-out and setting: with `CNC(=O)c1ncc2c(-c3ccccc3)nn(Cc3ccccc3)c2n1` [Compound 248] the figure was 95 % control.
